# Test results as given in the supplement of paper PMC10307832.
# Experiments:
# Experiment in all cases: relative viability (nuclei count vs DMSO), 5 days (fraction); higher = more cells survive
# NCI-H1623 = system: NCI-H1623
# Method in brief: (§1)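 Medians of duplicate plates are given as relative viability. That measure is the nuclei count in treated wells divided by the count in vehicle wells. Counts were taken on 4× images of lung cancer cell lines in 1536-well plates, 5 days after pin-tool dosing the day after seeding with one drug alone or a fixed anchor-drug dose plus five library-drug doses (not always all listed) in √10 steps.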
# A-427 = system: A-427
# Method in brief: as §1
# NCI-H2009 = system: NCI-H2009
# Method in brief: as §1
# NCI-H1650 = system: NCI-H1650
# Method in brief: as §1
# UMC-11 = system: UMC-11
# Method in brief: as §1
# NCI-H1734 = system: NCI-H1734
# Method in brief: as §1
# A549 = system: A549
# Method in brief: as §1
# CAL-12T = system: CAL-12T
# Method in brief: as §1
# LK-2 = system: LK-2
# Method in brief: as §1
# EBC-1 = system: EBC-1
# Method in brief: as §1
# NCI-H1703 = system: NCI-H1703
# Method in brief: as §1
# NCI-H1299 = system: NCI-H1299
# Method in brief: as §1
# Calu-6 = system: Calu-6
# Method in brief: as §1
# IA-LM = system: IA-LM
# Method in brief: as §1
compound,measurement,setting,value
Cc1sc2c(c1C)C(c1ccc(Cl)cc1)=N[C@@H](CC(=O)OC(C)(C)C)c1nnc(C)n1-2 [JQ1] + N=C(N)NC(=N)NCCc1ccccc1 [Phenformin] (partner 250 µM),relative viability,NCI-H1623; first compound 0.04 µM,0.597
same,relative viability,NCI-H1623; first compound 0.1265 µM,0.628
same,relative viability,NCI-H1623; first compound 0.4 µM,0.547
same,relative viability,NCI-H1623; first compound 1.265 µM,0.486
same,relative viability,NCI-H1623; first compound 4 µM,0.406
same,relative viability,A-427; first compound 0.04 µM,0.315
same,relative viability,A-427; first compound 0.1265 µM,0.241
same,relative viability,A-427; first compound 0.4 µM,0.341
same,relative viability,A-427; first compound 1.265 µM,0.276
same,relative viability,A-427; first compound 4 µM,0.228
same,relative viability,NCI-H2009; first compound 0.04 µM,0.477
same,relative viability,NCI-H2009; first compound 0.1265 µM,0.339
same,relative viability,NCI-H2009; first compound 0.4 µM,0.291
same,relative viability,NCI-H2009; first compound 1.265 µM,0.205
same,relative viability,NCI-H2009; first compound 4 µM,0.223
same,relative viability,NCI-H1650; first compound 0.04 µM,0.309
same,relative viability,NCI-H1650; first compound 0.1265 µM,0.304
same,relative viability,NCI-H1650; first compound 0.4 µM,0.182
same,relative viability,NCI-H1650; first compound 1.265 µM,0.118
same,relative viability,NCI-H1650; first compound 4 µM,0.137
same,relative viability,UMC-11; first compound 0.04 µM,0.29
same,relative viability,UMC-11; first compound 0.1265 µM,0.211
same,relative viability,UMC-11; first compound 0.4 µM,0.231
same,relative viability,UMC-11; first compound 1.265 µM,0.224
same,relative viability,UMC-11; first compound 4 µM,0.195
same,relative viability,NCI-H1734; first compound 0.04 µM,0.326
same,relative viability,NCI-H1734; first compound 0.1265 µM,0.312
same,relative viability,NCI-H1734; first compound 0.4 µM,0.336
same,relative viability,NCI-H1734; first compound 1.265 µM,0.251
same,relative viability,NCI-H1734; first compound 4 µM,0.23
same,relative viability,A549; first compound 0.04 µM,0.171
same,relative viability,A549; first compound 0.1265 µM,0.137
same,relative viability,A549; first compound 0.4 µM,0.14
same,relative viability,A549; first compound 1.265 µM,0.182
same,relative viability,A549; first compound 4 µM,0.21
same,relative viability,CAL-12T; first compound 0.04 µM,0.522
same,relative viability,CAL-12T; first compound 0.1265 µM,0.443
same,relative viability,CAL-12T; first compound 0.4 µM,0.42
same,relative viability,CAL-12T; first compound 1.265 µM,0.253
same,relative viability,CAL-12T; first compound 4 µM,0.284
same,relative viability,LK-2; first compound 0.04 µM,0.298
same,relative viability,LK-2; first compound 0.1265 µM,0.379
same,relative viability,LK-2; first compound 0.4 µM,0.21
same,relative viability,LK-2; first compound 1.265 µM,0.101
same,relative viability,LK-2; first compound 4 µM,0.147
CC(=O)O[C@@]12CO[C@@H]1C[C@H](O)[C@@]1(C)C(=O)[C@H](O)C3=C(C)[C@@H](OC(=O)[C@H](O)[C@@H](NC(=O)OC(C)(C)C)c4ccccc4)C[C@@](O)([C@@H](OC(=O)c4ccccc4)[C@H]21)C3(C)C [Docetaxel] + COc1cc2c(Oc3ccc(NC(=O)C4(C(=O)Nc5ccc(F)cc5)CC4)cc3F)ccnc2cc1OCCCN1CCOCC1 [Foretinib] (partner 0.25 µM),relative viability,EBC-1; first compound 0.0002 µM,0.0936
same,relative viability,EBC-1; first compound 0.000632 µM,0.0902
same,relative viability,EBC-1; first compound 0.002 µM,0.0988
same,relative viability,EBC-1; first compound 0.006325 µM,0.0924
same,relative viability,EBC-1; first compound 0.02 µM,0.09
same,relative viability,NCI-H1623; first compound 0.0002 µM,0.869
same,relative viability,NCI-H1623; first compound 0.000632 µM,0.834
same,relative viability,NCI-H1623; first compound 0.002 µM,0.584
same,relative viability,NCI-H1623; first compound 0.006325 µM,0.427
same,relative viability,NCI-H1623; first compound 0.02 µM,0.284
same,relative viability,A-427; first compound 0.0002 µM,1
same,relative viability,A-427; first compound 0.000632 µM,1.04
same,relative viability,A-427; first compound 0.002 µM,0.686
same,relative viability,A-427; first compound 0.006325 µM,0.261
same,relative viability,A-427; first compound 0.02 µM,0.176
same,relative viability,NCI-H2009; first compound 0.0002 µM,1.18
same,relative viability,NCI-H2009; first compound 0.000632 µM,1.26
same,relative viability,NCI-H2009; first compound 0.002 µM,0.952
same,relative viability,NCI-H2009; first compound 0.006325 µM,0.467
same,relative viability,NCI-H2009; first compound 0.02 µM,0.304
same,relative viability,NCI-H1703; first compound 0.000632 µM,0.351
same,relative viability,NCI-H1703; first compound 0.002 µM,0.341
same,relative viability,NCI-H1703; first compound 0.006325 µM,0.179
same,relative viability,NCI-H1703; first compound 0.02 µM,0.154
same,relative viability,NCI-H1299; first compound 0.0002 µM,1.1
same,relative viability,NCI-H1299; first compound 0.000632 µM,1.14
same,relative viability,NCI-H1299; first compound 0.002 µM,1
same,relative viability,NCI-H1299; first compound 0.006325 µM,0.62
same,relative viability,NCI-H1299; first compound 0.02 µM,0.295
same,relative viability,NCI-H1650; first compound 0.0002 µM,1.07
same,relative viability,NCI-H1650; first compound 0.000632 µM,0.598
same,relative viability,NCI-H1650; first compound 0.006325 µM,0.213
same,relative viability,NCI-H1650; first compound 0.02 µM,0.204
same,relative viability,UMC-11; first compound 0.0002 µM,0.934
same,relative viability,UMC-11; first compound 0.000632 µM,0.943
same,relative viability,UMC-11; first compound 0.002 µM,0.307
same,relative viability,UMC-11; first compound 0.006325 µM,0.245
same,relative viability,UMC-11; first compound 0.02 µM,0.186
same,relative viability,Calu-6; first compound 0.0002 µM,0.897
same,relative viability,Calu-6; first compound 0.000632 µM,0.627
same,relative viability,Calu-6; first compound 0.002 µM,0.165
same,relative viability,Calu-6; first compound 0.006325 µM,0.081
same,relative viability,Calu-6; first compound 0.02 µM,0.0747
same,relative viability,NCI-H1734; first compound 0.0002 µM,0.776
same,relative viability,NCI-H1734; first compound 0.000632 µM,0.743
same,relative viability,NCI-H1734; first compound 0.002 µM,0.404
same,relative viability,NCI-H1734; first compound 0.006325 µM,0.336
same,relative viability,NCI-H1734; first compound 0.02 µM,0.227
same,relative viability,A549; first compound 0.0002 µM,0.957
same,relative viability,A549; first compound 0.000632 µM,0.795
same,relative viability,A549; first compound 0.002 µM,0.0591
same,relative viability,A549; first compound 0.006325 µM,0.0413
same,relative viability,A549; first compound 0.02 µM,0.0241
same,relative viability,CAL-12T; first compound 0.0002 µM,0.979
same,relative viability,CAL-12T; first compound 0.000632 µM,0.729
same,relative viability,CAL-12T; first compound 0.002 µM,0.238
same,relative viability,CAL-12T; first compound 0.006325 µM,0.216
same,relative viability,CAL-12T; first compound 0.02 µM,0.163
same,relative viability,LK-2; first compound 0.0002 µM,1.02
same,relative viability,LK-2; first compound 0.000632 µM,0.948
same,relative viability,LK-2; first compound 0.002 µM,0.348
same,relative viability,LK-2; first compound 0.006325 µM,0.188
same,relative viability,LK-2; first compound 0.02 µM,0.14
same,relative viability,IA-LM; first compound 0.0002 µM,1.05
same,relative viability,IA-LM; first compound 0.000632 µM,0.386
same,relative viability,IA-LM; first compound 0.002 µM,0.0546
same,relative viability,IA-LM; first compound 0.006325 µM,0.0457
same,relative viability,IA-LM; first compound 0.02 µM,0.0491
